The target in assay [1] is T1, PGI1 (Arabidopsis thaliana, UniProt Q8H103).
T1 construct: homodimer reported as functional unit
T1 sequence (Q8H103 70-613): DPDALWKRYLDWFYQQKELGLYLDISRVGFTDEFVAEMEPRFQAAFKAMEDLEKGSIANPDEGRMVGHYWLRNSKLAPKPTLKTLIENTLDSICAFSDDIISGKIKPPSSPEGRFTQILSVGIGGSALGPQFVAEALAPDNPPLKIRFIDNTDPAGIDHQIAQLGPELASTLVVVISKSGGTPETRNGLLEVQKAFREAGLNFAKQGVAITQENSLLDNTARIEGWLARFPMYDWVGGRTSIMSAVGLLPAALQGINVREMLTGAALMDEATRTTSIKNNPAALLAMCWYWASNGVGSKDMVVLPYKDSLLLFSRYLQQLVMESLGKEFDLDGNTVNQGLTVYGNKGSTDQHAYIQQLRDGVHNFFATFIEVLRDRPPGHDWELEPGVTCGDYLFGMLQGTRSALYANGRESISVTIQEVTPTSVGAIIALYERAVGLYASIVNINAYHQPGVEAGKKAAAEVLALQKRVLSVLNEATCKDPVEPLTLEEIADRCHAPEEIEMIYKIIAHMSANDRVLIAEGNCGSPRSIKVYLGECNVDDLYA
The experiment in a line: inhibition at varying 6PG concentrations, coupled spectrophotometric assay. The format is biochemical. The conditions noted are these: F6P or G6P as substrate; 25 °C; reduced and oxidized PGI1.

In assay [2] the target is T1, PGI1. The assay is described as follows: inhibition at varying E4P concentrations, coupled spectrophotometric assay. The format is biochemical. The settings on record: F6P or G6P as substrate; 25 °C; reduced and oxidized PGI1.

The structures appear in SMILES notation.

Turning to `O=C(O)[C@H](O)[C@@H](O)[C@H](O)[C@H](O)COP(=O)(O)O` [6PG], the “inhibition at varying 6PG concentrations, coupled spectrophotometric assay” value against PGI1 [1] is “PGI1 activity decreased with increasing concentrations of E4P (Figure 9A and B) and 6PG”.
For the compound `O=C[C@H](O)[C@H](O)COP(=O)(O)O` [E4P], the “inhibition at varying E4P concentrations, coupled spectrophotometric assay” value at PGI1 [2] is “PGI1 activity decreased with increasing concentrations of E4P (Figure 9A and B)”.

(Values after PMC12751066, “Plastidial phosphoglucose isomerase undergoes thioredoxin-mediated redox modification without altering catalytic activity” (Biochemical Journal, 2025).)
